Assay results reported in patent publication US20220227792A1, “CARBORANE HYDROXAMIC ACID MATRIX METALLOPROTEINASE AGENTS FOR BORON NEUTRON CAPTURE THERAPY” (LOYOLA UNIVERSITY OF CHICAGO, priority 2019, published 2022).

Columns and labels:
MMP-2 = target: T1, MMP-2 (Homo sapiens, UniProt P08253); assay: MMP inhibition FRET assay, MMP-2; type: biochemical; conditions: 390 MMP FRET Substrate I, room temperature, 30 minutes, duplicate; read-out: IC50 MMP2
T1 sequence (P08253 110-660): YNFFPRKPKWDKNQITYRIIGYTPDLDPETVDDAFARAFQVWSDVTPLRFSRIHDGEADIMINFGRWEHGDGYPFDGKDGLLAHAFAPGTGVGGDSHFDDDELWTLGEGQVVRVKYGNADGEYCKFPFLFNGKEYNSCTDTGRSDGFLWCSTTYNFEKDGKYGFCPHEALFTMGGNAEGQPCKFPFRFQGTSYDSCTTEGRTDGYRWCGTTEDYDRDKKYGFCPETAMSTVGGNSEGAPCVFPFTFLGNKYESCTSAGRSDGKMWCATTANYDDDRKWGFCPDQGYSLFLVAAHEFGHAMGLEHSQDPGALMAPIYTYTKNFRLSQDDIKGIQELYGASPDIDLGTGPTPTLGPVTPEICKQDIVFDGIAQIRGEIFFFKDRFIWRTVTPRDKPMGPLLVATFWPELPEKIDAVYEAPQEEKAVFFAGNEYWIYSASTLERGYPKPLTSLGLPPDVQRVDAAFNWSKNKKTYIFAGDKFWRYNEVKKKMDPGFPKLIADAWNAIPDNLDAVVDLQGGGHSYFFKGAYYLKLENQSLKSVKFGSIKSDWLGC
Experimental: (§1) Serial dilutions of a compound were prepared with 10% DMSO and 5 μL of the dilution was added to a 50 μL reaction so that the final concentration of DMSO is 1% in all of reactions.
(§2) The enzymes were diluted in 50 mM HEPES buffer pH 7.4, 10 mM CaCl2, 0.05% Brij-35, and 1 mM APMA for activation at 37° C. for 2 hours.
(§3) […] activity assays were performed in duplicate at each concentration. The fluorescent intensity data were analyzed using the computer software, Graphpad Prism. In the absence of the compound, the fluorescent intensity (Ft) in each data set was defined as 100% activity. In the absence of enzyme, the fluorescent intensity (Fb) in each data set was defined as 0% activity. The percent activity in the presence of each compound was calculated according to the following equation: %activity=(F−Fb)/(Ft−Fb), where F=the fluorescent intensity in the presence of the compound.
(§4) The values of % activity versus a series of compound concentrations were then plotted using non-linear regression analysis of Sigmoidal dose-response curve generated with the equation Y=B+(T−B)/1+10^((Log EC50−X)×Hill Slope), where Y=percent activity, B=minimum percent activity, T=maximum percent activity, X=logarithm of compound and Hill Slope=slope factor or Hill coefficient. The IC50 value was determined by the concentration causing a half-maximal percent activity.

MMP9 (Q279R) = MMP9 (Q279R) (Homo sapiens, UniProt P14780, Q279R); assay: MMP inhibition FRET assay, MMP-9; type: biochemical; conditions: 390 MMP FRET Substrate I, room temperature, 30 minutes, duplicate
Experimental: as §1, §2, §3, §4

Sequence of MMP9 (Q279R) (P14780 107-707 Q279R limits assumed): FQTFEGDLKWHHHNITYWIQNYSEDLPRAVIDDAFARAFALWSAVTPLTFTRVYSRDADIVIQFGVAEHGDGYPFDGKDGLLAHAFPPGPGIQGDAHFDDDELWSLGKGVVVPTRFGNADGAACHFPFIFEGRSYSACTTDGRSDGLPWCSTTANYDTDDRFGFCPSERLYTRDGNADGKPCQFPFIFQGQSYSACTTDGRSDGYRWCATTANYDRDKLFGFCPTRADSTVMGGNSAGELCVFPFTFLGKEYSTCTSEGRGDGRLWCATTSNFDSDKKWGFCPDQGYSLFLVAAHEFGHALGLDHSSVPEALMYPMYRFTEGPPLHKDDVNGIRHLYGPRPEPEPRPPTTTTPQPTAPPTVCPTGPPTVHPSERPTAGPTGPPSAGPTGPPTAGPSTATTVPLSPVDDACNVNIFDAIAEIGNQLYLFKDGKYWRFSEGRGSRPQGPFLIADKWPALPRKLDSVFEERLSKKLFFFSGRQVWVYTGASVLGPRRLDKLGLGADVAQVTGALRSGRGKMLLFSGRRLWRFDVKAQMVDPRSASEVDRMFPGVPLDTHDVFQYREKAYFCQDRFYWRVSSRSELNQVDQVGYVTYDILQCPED

IC50 (MMP-2): 4 nM
IC50 (MMP9 (Q279R)): 4 nM
Compound: COc1ccc(S(=O)(=O)N(CC(=O)NO)CC(C)C)cc1 [NNGH, N-Isobutyl-N-(4-methoxyphenylsulfonyl)glycyl Hydroxamic Acid]
